Measurements published in patent US10370366B2 (Flatley Discovery Lab, LLC, priority 2013, dated 2019).

Target: T1, human F508del CFTR (Homo sapiens, UniProt P13569, DEL508-508)
T1 construct: expressed in transfected cells; host or cells: Fisher Rat Thyroid (FRT) cells
Experiment: CFTR-YFP High Throughput Assay
Type: cell-based
Conditions: FRT cells expressing human F508del CFTR and YFP; for Emax: EMax normalized to the positive control, read-out: % Efficacy
Summary of the method: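 FRT cells stably co-expressing human F508del CFTR and halide-sensitive YFP-H148Q/I152L; for correction, compound (2 nM-40 μM) incubated 24-26 h at 37° C, washed, then stimulated 60-120 min at RT with 20 μM forskolin plus 30 μM potentiator P3. Iodide-induced YFP quench (Ex 500/Em 540 nm) recorded; quench rates least-squares fitted.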

T1 sequence (P13569 with tags, fused parts or gaps DEL508-508): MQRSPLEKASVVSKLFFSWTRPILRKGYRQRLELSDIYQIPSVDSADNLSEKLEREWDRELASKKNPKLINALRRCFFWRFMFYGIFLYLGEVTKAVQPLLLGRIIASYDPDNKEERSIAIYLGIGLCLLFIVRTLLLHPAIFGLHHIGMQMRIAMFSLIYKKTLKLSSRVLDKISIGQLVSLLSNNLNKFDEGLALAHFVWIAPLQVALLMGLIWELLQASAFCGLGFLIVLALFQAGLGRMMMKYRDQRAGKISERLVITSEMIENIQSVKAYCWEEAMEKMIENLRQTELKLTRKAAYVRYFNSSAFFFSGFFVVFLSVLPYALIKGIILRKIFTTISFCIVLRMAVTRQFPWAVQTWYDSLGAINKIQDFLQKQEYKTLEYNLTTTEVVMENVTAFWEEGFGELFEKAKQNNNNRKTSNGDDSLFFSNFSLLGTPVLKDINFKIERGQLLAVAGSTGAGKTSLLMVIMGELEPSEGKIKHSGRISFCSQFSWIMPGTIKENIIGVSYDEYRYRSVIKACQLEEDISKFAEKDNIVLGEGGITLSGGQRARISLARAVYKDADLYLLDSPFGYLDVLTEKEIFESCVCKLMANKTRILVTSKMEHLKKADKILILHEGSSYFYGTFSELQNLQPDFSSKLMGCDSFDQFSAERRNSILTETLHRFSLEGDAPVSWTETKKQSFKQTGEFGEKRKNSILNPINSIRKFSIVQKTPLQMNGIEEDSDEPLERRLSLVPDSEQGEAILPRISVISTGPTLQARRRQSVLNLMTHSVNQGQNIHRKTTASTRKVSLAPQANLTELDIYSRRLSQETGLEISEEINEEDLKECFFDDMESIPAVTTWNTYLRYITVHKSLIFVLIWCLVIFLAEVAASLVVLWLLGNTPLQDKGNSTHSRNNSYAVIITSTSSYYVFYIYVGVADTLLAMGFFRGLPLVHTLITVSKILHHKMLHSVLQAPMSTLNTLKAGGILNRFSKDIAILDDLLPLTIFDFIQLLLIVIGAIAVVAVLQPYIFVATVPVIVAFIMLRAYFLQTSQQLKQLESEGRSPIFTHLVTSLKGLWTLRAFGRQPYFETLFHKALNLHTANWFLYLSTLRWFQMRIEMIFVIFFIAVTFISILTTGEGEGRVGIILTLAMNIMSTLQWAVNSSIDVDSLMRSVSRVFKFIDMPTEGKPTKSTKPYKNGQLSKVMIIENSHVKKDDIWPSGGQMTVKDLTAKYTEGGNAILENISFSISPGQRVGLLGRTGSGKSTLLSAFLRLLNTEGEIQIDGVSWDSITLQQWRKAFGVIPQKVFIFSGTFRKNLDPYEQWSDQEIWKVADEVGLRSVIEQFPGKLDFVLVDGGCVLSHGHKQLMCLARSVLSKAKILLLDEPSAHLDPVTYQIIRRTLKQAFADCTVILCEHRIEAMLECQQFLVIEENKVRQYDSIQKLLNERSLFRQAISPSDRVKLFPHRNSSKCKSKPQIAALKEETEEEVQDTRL

CCc1ccc(N(CC)C(=O)Cn2nc(-c3cncnc3)c3ccccc3c2=O)cc1 [Example 7, N-ethyl-N-(4-ethylphenyl)-2-(1-oxo-4-(pyrimidin-5-yl)phthalazin-2(1H)-yl)acetamide]
Emax: 30 to 80% | EC50: > 20 µM

CCN(C(=O)Cn1nc(Cc2cccnc2)c2cc(OC)c(OC)cc2c1=O)c1ccc2c(c1)OC(F)(F)O2 [Example 44, N-(2,2-difluorobenzo[d][1,3]dioxol-5-yl)-2-(6,7-dimethoxy-1-oxo-4-(pyridin-3-ylmethyl)phthalazin-2(1H)-yl)-N-ethylacetamide]
Emax: 30 to 80% | EC50: 10 to 20 µM

CCN(C(=O)c1nn(Cc2ccccc2)c(=O)c2c1c1ccccc1n2C)c1ccccc1 [Example 197, 3-benzyl-N-ethyl-5-methyl-4-oxo-N-phenyl-4,5-dihydro-3H-pyridazino[4,5-b]indole-1-carboxamide]
Emax: 30 to 80%

CCN(C(=O)Cn1nc(Cc2cccnc2)c2ccccc2c1=O)c1ccc2c(c1)OC(F)(F)O2 [Example 26, N-(2,2-difluorobenzo[d][1,3]dioxol-5-yl)-N-ethyl-2-(1-oxo-4-(pyridin-3-ylmethyl)phthalazin-2(1H)-yl)acetamide]
Emax: 30 to 80%

CCN(C(=O)c1nn(-c2ccc(C)cc2)c(=O)c2c1c1ccc(Cl)cc1n2C)c1ccccc1 [Example 166, 7-chloro-N-ethyl-5-methyl-4-oxo-N-phenyl-3-(p-tolyl)-4,5-dihydro-3H-pyridazino[4,5-b]indole-1-carboxamide]
Emax: 30 to 80% | EC50: < 10 µM

CCN(C(=O)c1nn(C(C)C)c(=O)c2c1c1ccccc1n2C)c1cccc(Cl)c1 [Example 201, N-(3-chlorophenyl)-N-ethyl-3-isopropyl-5-methyl-4-oxo-4,5-dihydro-3H-pyridazino[4,5-b]indole-1-carboxamide]
Emax: 30 to 80%

COc1cc2c(=O)n(CC(=O)N(C)c3ccc4nc(C)oc4c3)nc(-c3cccc(F)c3)c2cc1Cl [Example 93, 2-(6-chloro-4-(3-fluorophenyl)-7-methoxy-1-oxophthalazin-2(1H)-yl)-N-methyl-N-(2-methylbenzo[d]oxazol-6-yl)acetamide]
Emax: > 80%

Cc1ccc(-n2nc(C(=O)N3CCCc4ccccc43)c3c4ccccc4n(C)c3c2=O)cc1 [Example 159, 5-methyl-1-(1,2,3,4-tetrahydroquinoline-1-carbonyl)-3-(p-tolyl)-3H-pyridazino[4,5-b]indol-4(5H)-one]
Emax: 30 to 80%

CCN(C(=O)Cn1nc(-c2cccc(C#N)c2)c2ccccc2c1=O)c1ccc2c(c1)OC(F)(F)O2 [Example 21, 2-(4-(3-cyanophenyl)-1-oxophthalazin-2(1H)-yl)-N-(2,2-difluorobenzo[d][1,3]dioxol-5-yl)-N-ethylacetamide]
Emax: > 80% | EC50: < 10 µM

CCc1ccc(N(CC)C(=O)Cn2nc(Cc3cccnc3)c3cc(Cl)ccc3c2=O)cc1 [Example 40, 2-(6-chloro-1-oxo-4-(pyridin-3-ylmethyl)phthalazin-2(1H)-yl)-N-ethyl-N-(4-ethylphenyl)acetamide]
Emax: 30 to 80%

CCc1ccc(N(CC)C(=O)Cn2nc(Cc3cccnc3)c3ccncc3c2=O)cc1 [Example 41, N-ethyl-N-(4-ethylphenyl)-2-(4-oxo-1-(pyridin-3-ylmethyl)pyrido[3,4-d]pyridazin-3(4H)-yl)acetamide]
Emax: 30 to 80% | EC50: < 10 µM

CCN(C(=O)Cn1nc(Cc2cccnc2)c2ccc(C(C)(C)C)cc2c1=O)c1ccc2c(c1)OC(F)(F)O2 [Example 50, 2-(7-(tert-butyl)-1-oxo-4-(pyridin-3-ylmethyl)phthalazin-2(1H)-yl)-N-(2,2-difluorobenzo[d][1,3]dioxol-5-yl)-N-ethylacetamide]
Emax: > 80%

CCN(C(=O)Cn1nc(-c2cccc(C#N)c2)c2ccc(OC)cc2c1=O)c1ccc2c(c1)OC(F)(F)O2 [Example 75, 2-(4-(3-cyanophenyl)-7-methoxy-1-oxophthalazin-2(1H)-yl)-N-(2,2-difluorobenzo[d][1,3]dioxol-5-yl)-N-ethylacetamide]
Emax: > 80% | EC50: < 10 µM

CCc1ccc(N(CC)C(=O)Cn2nc(-c3ccc(C(=O)OC)cc3)c3ccccc3c2=O)cc1 [Example 15, methyl 4-(3-(2-(ethyl(4-ethylphenyl)amino)-2-oxoethyl)-4-oxo-3,4-dihydrophthalazin-1-yl)benzoate]
Emax: 10 to 30% | EC50: > 20 µM

COc1ccc2c(-c3cccc(Cl)c3)nn(CC(=O)C3(c4ccc5c(c4)OC(F)(F)O5)CC3)c(=O)c2c1 [Example 249, 4-(3-chlorophenyl)-2-(2-(1-(2,2-difluorobenzo[d][1,3]dioxol-5-yl)cyclopropyl)-2-oxoethyl)-7-methoxyphthalazin-1(2H)-one]
Emax: > 80% | EC50: < 10 µM

Cc1nc2ccc(N(C)C(=O)Cn3ncc4c(c3=O)c3ccccc3n4Cc3ccc(Cl)cc3)cc2o1 [Example 147, 2-(5-(4-chlorobenzyl)-1-oxo-1,5-dihydro-2H-pyridazino[4,5-b]indol-2-yl)-N-methyl-N-(2-methylbenzo[d]oxazol-6-yl)acetamide]
Emax: 30 to 80% | EC50: < 10 µM

CCN(C(=O)c1nn(CC(=O)N2CCCCC2)c(=O)c2c1c1ccccc1n2C)c1ccccc1 [Example 214, N-ethyl-5-methyl-4-oxo-3-(2-oxo-2-(piperidin-1-yl)ethyl)-N-phenyl-4,5-dihydro-3H-pyridazino[4,5-b]indole-1-carboxamide]
Emax: 30 to 80% | EC50: < 10 µM

CCN(C(=O)Cn1ncc2c(c1=O)c1ccccc1n2Cc1ccccc1)c1ccc2c(c1)OC(F)(F)O2 [Example 133, 2-(5-benzyl-1-oxo-1H-pyridazino[4,5-b]indol-2(5H)-yl)-N-(2,2-difluorobenzo[d][1,3]dioxol-5-yl)-N-ethylacetamide]
Emax: 30 to 80%

CCN(C(=O)c1nn(C(C)C)c(=O)c2c1c1sc(C)cc1n2C)c1ccccc1 [Example 246, N-ethyl-6-isopropyl-2,4-dimethyl-5-oxo-N-phenyl-5,6-dihydro-4H-thieno[2′,3′:4,5]pyrrolo[2,3-d]pyridazine-8-carboxamide]
Emax: 30 to 80% | EC50: > 20 µM

COc1ccc2c(-c3ccc(S(N)(=O)=O)cc3)nn(CC(=O)N(c3ccc4c(c3)OC(F)(F)O4)C3CC3)c(=O)c2c1 [Example 78, N-cyclopropyl-N-(2,2-difluorobenzo[d][1,3]dioxol-5-yl)-2-(7-methoxy-1-oxo-4-(4-sulfamoylphenyl)phthalazin-2(1H)-yl)acetamide]
Emax: 30 to 80%

CCN(C(=O)Cn1ncc2c(c1=O)c1ccccc1n2CCCOC)c1ccc2c(c1)OC(F)(F)O2 [Example 137, N-(2,2-difluorobenzo[d][1,3]dioxol-5-yl)-N-ethyl-2-(5-(3-methoxypropyl)-1-oxo-1H-pyridazino[4,5-b]indol-2(5H)-yl)acetamide]
Emax: 30 to 80%

CCOc1cc2c(=O)n(CC(=O)N(C)c3ccc4c(c3)OC(F)(F)O4)nc(-c3cccc(C#N)c3)c2cc1Cl [Example 122, 2-(6-chloro-4-(3-cyanophenyl)-7-ethoxy-1-oxophthalazin-2(1H)-yl)-N-(2,2-difluorobenzo[d][1,3]dioxol-5-yl)-N-methylacetamide]
Emax: > 80% | EC50: < 10 µM

CCN(CC)C(=O)c1nn(-c2ccc(C)cc2)c(=O)c2c1c1ccccc1n2C [Example 155, N, N-diethyl-5-methyl-4-oxo-3-(p-tolyl)-4,5-dihydro-3H-pyridazino[4,5-b]indole-1-carboxamide]
Emax: 30 to 80%
